Results on four compounds are retold here after patent US11774442B2, “Molecule sensor systems” (priority 2016, dated 2023).

Data set [1] relates to PcaV. Briefly: PcaV synthetic promoter/operator GFP reporter in E. coli. It is filed as cell-based, Streptomyces coelicolor. As to conditions: E. coli harboring PcaV plasmid, grown in supplemented medium. From the text:
As an example, Streptomyces coelicolor harbors an aTF, PcaV (SC06704), a member of the MarR family, which relieves repression on its operator in the presence of 3,4-dihydroxybenzoic acid. When the intergenic region between PcaV and Pcal was cloned into position to promote the expression of GFP on a plasmid which can be maintained in E. coli, no GFP expression was observed even though no known protein was present which could bind the operator site. […] Upon the introduction of the PcaV protein under a constitutive promoter, the GFP expression was suppressed. […] See FIG. 1, FIG. 2, FIG. 3, FIG. 21.

Data set [2] relates to FapR. Briefly: FapR GFP reporter in E coli. It is filed as cell-based, Staphylococcus aureus. As to conditions: increasing concentrations. From the text: (§1) Staphylococcus aureus FapR responds to intracellular levels of malonyl-CoA. Cerulenin is an inhibitor of fatty acid biosynthesis and is known to increase the intracellular pool of malonyl-CoA at subtoxic concentrations.

Data set [3] relates to E coli. Briefly: Toxicity in FapR chassis dose response (OD600 and fluorescence channels). It is filed as cell-based. The note with it: highest concentration.
Description: as §1

Data set [4] has as its target T1, TtgR (Pseudomonas putida, UniProt Q88N29).
T1 construct: Wild type of TtgR; expressed in transfected cells; host or cells: E. coli
Description: TtgR-GFP sensor-reporter system in E. coli, response to naringenin. The note with it: TtgR-binding synthetic operator promoter. The format is cell-based. From the text: TtgR regulates the TtgABC efflux pump in Pseudomonas putida, and responds to antibiotics such as chloramphenicol (Teran, et al) as well as the flavanones such as naringenin (Raman, et al).
See FIG. 8, FIG. 9, FIG. 10, FIG. 11, FIG. 13.

In data set [5] the test system is FadR. The format is cell-based, Vibrio cholerae. As to conditions: E coli; increased levels.

T1 sequence (Q88N29 whole entry): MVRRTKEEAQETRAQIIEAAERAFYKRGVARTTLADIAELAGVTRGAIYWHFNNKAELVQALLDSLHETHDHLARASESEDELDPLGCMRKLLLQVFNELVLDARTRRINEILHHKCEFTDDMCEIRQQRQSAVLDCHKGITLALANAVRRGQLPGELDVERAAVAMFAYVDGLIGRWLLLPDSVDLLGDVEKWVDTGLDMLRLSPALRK

As for `O=C(O)c1ccc(O)c(O)c1` [3,4-dihydroxybenzoic acid], the GFP expression entry in data set [1] is listed as “expression of GFP was observed”.
For the compound `C/C=C/C/C=C/CCC(=O)[C@H]1O[C@H]1C(N)=O` [cerulenin], in data set [2], the GFP reporter expression result is listed as “increased expression of a GFP reporter”. Further, the toxicity result in data set [3] was “toxicity at highest concentration”.
As to `O=C1C[C@@H](c2ccc(O)cc2)Oc2cc(O)cc(O)c21` [naringenin], the GFP expression entry in data set [4] is recorded as “drive GFP expression”.
For the compound `CCCCCCCC/C=C\CCCCCCCC(=O)O` [oleic acid], in data set [5], the GFP reporter expression result is reported as “driving expression of a GFP reporter”.
